The supplement of paper PMC11061612

Assays:
[1] = test system: NCI-H3118 (Head and Neck Carcinoma); assay: combination Emax (second highest fraction inhibited in the dose matrix, 72 h); higher = more inhibition; extreme values may be limits of the assay
Outline: (§1)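 Cell lines grown in DMEM/F12 or RPMI with 10% FBS were plated in 1536-well plates and held 24 hours at 37°C, 5% CO2 before 72 hours of exposure to two-drug dose matrices, with DMSO typically at 0.2%. CellTiter-Glo 2.0 luminescence gave viability, which was converted to inhibition. Vehicle wells were set to 0 and blank wells to 1. Combination Emax is the second-highest inhibition in the matrix, and Bliss excess is the observed combination effect minus the expected EA + EB − EA·EB, where EA and EB are the single-agent effects.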

[2] = test system: LCLC-103H (Non-Small Cell Lung Carcinoma); assay: as above
Outline: as §1

IST-MEL1 (Melanoma) = assay: as above
Outline: as §1

[3] = test system: CPC-N (Small Cell Lung Carcinoma); assay: as above
Outline: as §1

ES6 (Ewing's Sarcoma) [4] = assay: as above
Outline: as §1

[5] = test system: IA-LM (Non-Small Cell Lung Carcinoma); assay: as above
Outline: as §1

[6] = test system: C-33-A (Cervical Carcinoma); assay: as above
Outline: as §1

NCI-H226 (Mesothelioma) [7] = assay: as above
Outline: as §1

[8] = test system: HPAF-II (Pancreatic Carcinoma); assay: as above
Outline: as §1

[9] = test system: RCC-JW (Kidney Carcinoma); assay: as above
Outline: as §1

[10] = test system: ZR-75-30 (Breast Carcinoma); assay: as above
Outline: as §1

[11] = test system: SK-CO-1 (Colorectal Carcinoma); assay: as above
Outline: as §1

GAK (Melanoma) = assay: as above
Outline: as §1

[12] = test system: MONO-MAC-6 (Acute Myeloid Leukemia); assay: as above
Outline: as §1

ES6 (Ewing's Sarcoma) [13] = assay: Bliss excess, mean over the matrix (fraction); higher = more synergy
Outline: as §1

[14] = test system: BxPC-3 (Pancreatic Carcinoma); assay: as above
Outline: as §1

NCI-H226 (Mesothelioma) [15] = assay: as above
Outline: as §1

[16] = test system: RCC-JW (Kidney Carcinoma); assay: as above
Outline: as §1

KALS-1 (Glioblastoma) = assay: as above
Outline: as §1

SK-N-SH (Neuroblastoma) = assay: as above
Outline: as §1
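Throughout, for Bliss excess, mean over the matrix: after 72 h of two-drug dosing.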

Compound	combination Emax [1]	combination Emax [2]	combination Emax (IST-MEL1 (Melanoma))	combination Emax [3]	combination Emax (ES6 (Ewing's Sarcoma) [4])	combination Emax [5]	combination Emax [6]	combination Emax (NCI-H226 (Mesothelioma) [7])	combination Emax [8]	combination Emax [9]	combination Emax [10]	combination Emax [11]	combination Emax (GAK (Melanoma))	combination Emax [12]	Bliss excess (ES6 (Ewing's Sarcoma) [13])	Bliss excess [14]	Bliss excess (NCI-H226 (Mesothelioma) [15])	Bliss excess [16]	Bliss excess (KALS-1 (Glioblastoma))	Bliss excess (SK-N-SH (Neuroblastoma))
C=CCn1c(=O)c2cnc(Nc3ccc(N4CCN(C)CC4)cc3)nc2n1-c1cccc(C(C)(C)O)n1 [AZD1775] + CCc1c2c(nc3ccc(O)cc13)-c1cc3c(c(=O)n1C2)COC(=O)[C@]3(O)CC [SN-38] (first compound max 1 µM, partner max 0.3 µM)	0.9	0.709	0.825	0.923	0.607	0.67	0.997	0.366	0.597	0.542	0.137	0.898	0.678	1	-0.0995	-0.101	-0.0755	-0.0187	0.0642	-0.019
Cc1c2c(nn1C)CSCc1cc(n(C)n1)CSc1cc(c3ccccc3c1)OCCCc1c(C(=O)O)n(C)c3c-2c(Cl)ccc13 [AZD5991] + CS(=O)(=O)CCNCc1ccc(-c2ccc3ncnc(Nc4ccc(OCc5cccc(F)c5)c(Cl)c4)c3c2)o1 [Lapatinib] (first compound max 1 µM, 7x7, partner max 10 µM)	0.723	0.2	0.295	0.327	0.515	0.297	0.514	0.145	0.213	0.981	0.974	0.471	0.352	1	0.0331	-0.005	-0.0183	-0.0401	0.0053	0.0615
CS(=O)(=O)CCNCc1ccc(-c2ccc3ncnc(Nc4ccc(OCc5cccc(F)c5)c(Cl)c4)c3c2)o1 [Lapatinib] + Cn1cnc2c(F)c(Nc3ccc(Br)cc3Cl)c(C(=O)NOCCO)cc21 [Selumetinib] (first compound max 10 µM, 7x7, partner max 10 µM)	0.653	0.309	0.543	0.251	0.553	0.318	0.55	0.228	0.877	0.988	0.807	0.886	0.722	0.437	-0.0159	0.0703	-0.0542	-0.0525	0.0025	-0.0123
Cc1cc2ncnn2cc1Nc1ncc2c(n1)n(C1CCOCC1)c(=O)n2C [AZD7648] + COc1cc([C@@H]2c3cc4c(cc3[C@@H](O[C@@H]3O[C@@H]5CO[C@@H](C)O[C@H]5[C@H](O)[C@H]3O)[C@H]3COC(=O)[C@H]23)OCO4)cc(OC)c1O [Etoposide] (first compound max 10 µM, 7x7, partner max 10 µM)	0.768	0.584	0.638	0.906	0.36	0.28	0.945	0.332	0.199	0.56	0.258	0.879	0.525	1	-0.0009	-0.0254	0.0215	0.132	0.101	0.0634
Cc1c2c(nn1C)CSCc1cc(n(C)n1)CSc1cc(c3ccccc3c1)OCCCc1c(C(=O)O)n(C)c3c-2c(Cl)ccc13 [AZD5991] + CC(=O)O[C@H]1C(=O)[C@@]2(C)[C@H]([C@H](OC(=O)c3ccccc3)[C@]3(O)C[C@H](OC(=O)[C@H](O)[C@@H](NC(=O)c4ccccc4)c4ccccc4)C(C)=C1C3(C)C)[C@]1(OC(C)=O)CO[C@@H]1C[C@@H]2O [Paclitaxel] (first compound max 1 µM, 7x7, partner max 3 µM)	0.973	0.91	0.587	0.773	0.312	0.199	0.912	0.378	0.53	0.737	0.441	0.858	0.548	1	0.005	0.0075	-0.008	-0.0029	0.0314	-0.0507
CN(CCO)CC[C@H](CSc1ccccc1)Nc1ccc(S(=O)(=O)NC(=O)c2ccc(N3CCC([C@@H](O)c4ccccc4-c4ccc(Cl)cc4)CC3)cc2)cc1S(=O)(=O)C(F)(F)F [AZD4320] + CS(=O)(=O)CCNCc1ccc(-c2ccc3ncnc(Nc4ccc(OCc5cccc(F)c5)c(Cl)c4)c3c2)o1 [Lapatinib] (first compound max 1 µM, 7x7, partner max 10 µM)	0.561	0.488	0.364	0.977	0.971	0.539	0.476	0.309	0.984	1	0.957	0.97	0.272	0.885	-0.0017	-0.025	-0.0437	-0.0443	0.0176	0.112
CS(=O)(=O)CCNCc1ccc(-c2ccc3ncnc(Nc4ccc(OCc5cccc(F)c5)c(Cl)c4)c3c2)o1 [Lapatinib] + NC1(c2ccc(-c3nc4ccn5c(=O)[nH]nc5c4cc3-c3ccccc3)cc2)CCC1 [MK-2206] (first compound max 10 µM, 7x7, partner max 10 µM)	0.783	0.538	0.886	0.847	0.879	0.487	0.895	0.164	0.402	0.964	0.912	0.793	0.872	0.671	-0.0408	0.0263	-0.0287	-0.0285	-0.004	-0.0194
C=CCn1c(=O)c2cnc(Nc3ccc(N4CCN(C)CC4)cc3)nc2n1-c1cccc(C(C)(C)O)n1 [AZD1775] + Nc1ccn([C@@H]2O[C@H](CO)[C@@H](O)C2(F)F)c(=O)n1 [Gemcitabine] (first compound max 1 µM, partner max 0.3 µM)	0.872	0.753	0.662	0.897	0.556	0.287	0.996	0.482	0.551	0.819	0.24	0.903	0.612	1	-0.0385	-0.029	0.0067	-0.0163	0.0299	-0.0051
O=C(c1cc(Cc2n[nH]c(=O)c3ccccc23)ccc1F)N1CCN(C(=O)C2CC2)CC1 [Olaparib] + CN(CC[C@H](CSC1=CC=CC=C1)NC2=C(C=C(C=C2)S(=O)(=O)NC(=O)C3=CC=C(C=C3)N4CCC(CC4)[C@H](C5=CC=CC=C5C6=CC=C(C=C6)Cl)O)S(=O)(=O)C(F)(F)F)CCO [AZD4320] (first compound max 10 µM, 7x7, partner max 1 µM)	0.155	0.224	0.171	0.856	0.237	0.328	0.386	0.105	0.796	0.787	0.149	0.949	0.146	0.431	-0.0216	-0.0424	-0.047	-0.0532	-0.0432	0.0025
CN(CCO)CC[C@H](CSc1ccccc1)Nc1ccc(S(=O)(=O)NC(=O)c2ccc(N3CCC([C@@H](O)c4ccccc4-c4ccc(Cl)cc4)CC3)cc2)cc1S(=O)(=O)C(F)(F)F [AZD4320] + CC(=O)O[C@H]1C(=O)[C@@]2(C)[C@H]([C@H](OC(=O)c3ccccc3)[C@]3(O)C[C@H](OC(=O)[C@H](O)[C@@H](NC(=O)c4ccccc4)c4ccccc4)C(C)=C1C3(C)C)[C@]1(OC(C)=O)CO[C@@H]1C[C@@H]2O [Paclitaxel] (first compound max 1 µM, 7x7, partner max 3 µM)	0.978	0.985	0.977	1	0.779	0.833	0.989	0.917	0.955	0.952	0.326	0.972	0.709	1	0.101	0.157	0.131	0.0707	0.0468	-0.0254
N#Cc1cnc(Nc2cc(NC[C@H]3CNCCO3)c(C(F)(F)F)cn2)cn1 [SRA737] + Nc1ccn([C@@H]2O[C@H](CO)[C@@H](O)C2(F)F)c(=O)n1 [Gemcitabine] (first compound max 10 µM, 7x7, partner max 0.3 µM)	0.772	0.844	0.709	0.916	0.599	0.373	0.951	0.462	0.61	0.868	0.312	0.899	0.506	1	-0.0212	-0.0421	0.0349	0.0179	0.0597	-0.0168
Cc1nc(-c2cn3c(n2)-c2ccc(-c4cnn(C(C)(C)C(N)=O)c4)cc2OCC3)n(C(C)C)n1 [Taselisib] + O=C(Nc1ccc2[nH]nc(-c3ccncc3)c2c1)[C@@H]1CCN(CC(=O)N2CCN(c3ccc(-c4ncccn4)cc3)CC2)C1 [SCH772984] (first compound max 10 µM, 7x7, partner max 5 µM)	0.931	0.472	0.885	0.484	0.639	0.399	0.661	0.393	0.917	0.638	0.706	0.975	0.944	0.964	-0.0318	0.133	0.0164	-0.0167	-0.0253	0.0498
